The subject of one series is alkaline phosphatase. The series is classed as in vitro ADME. The settings on record: FIG. 2; for stability under the action of alkaline phosphatase: 75 mM Tris Buffer pH 8.3, 5 mM MgCl2, 37° C., 2-5 hours; for formation of dephosphorylated FST under alkaline phosphatase: conditions of Example 1. The procedure:
Reaction condidtions: FST was dissolved in a solution of 75 mM Tris Buffer (pH 8.3) and 5 mM MgCl2 to obtain a 20 mM FST solution, to each milligram of Fostriecin was added 1 to 1.5 units of alkaline phosphatase, enzymolysis was performed at 37° C. for 2-5 hours.
Thiophosphorylated FST(A) and methyl phosphorylated FST(B) were subjected to hydrolysis of alkaline phosphatase under the reaction condidtions as described in Example 1.

The test system of series [1] is CCRF-CEM (human leukemia). The series can be described thus: Celltiter 96 cell proliferation assay (modified MTT method), CCRF-CEM. The series is classed as cell-based. The settings on record: read-out: IC50 CCRF-CEM (human leukemia). The procedure:
(§1) The anti-tumor activities of the compounds of thiophosphorylated FST (A) and methyl phosphorylated FST (B) of the present invention to various tumor cell lines of HL-60, CCRD-CEM and NCI-H460 were determined by Celltiter 96 cell proliferation assay kit (modified MTT method) manufactured by Promega company. Onto a 96-well plate, total volume 50 ul/well was added with about 5-7.5×10^3 cells/well, and cultured for 24 hours, followed by addition of 50 ul of the compounds (0.001 nM˜1000 nM) to each well, and cultured for 72 hours. Subsequently, 15 ul of MTT staining solution was added to the well, temperature was kept for 4 hours, the thus formed precipitate was then dissolved with 100 ul lysis buffe/stop solution. After 1 hour, the content in the well was mixed homogeneously with a shaker, and the abosorption value (OD 570 nm) of each well was measured by enzyme-labeled instrument (Molecular Devices). The data was analyzed with Kaleida Graph Program, and the IC50 value (the concentration of the compound at which the growth of 50% of the cell is inhibited) was calculated.

The test system of a further series is HL60 (human leukemia). Description: Celltiter 96 cell proliferation assay (modified MTT method), HL60. The settings on record: read-out: IC50 HL60 (human leukemia). The series is classed as cell-based. On the procedure: as §1
(In general: Formazan colour is commonly taken as a measure of viable cells.)

For series [2], the system named is NCI-H460 (human Lung Cancer). The series can be described thus: Celltiter 96 cell proliferation assay (modified MTT method), NCI-H460. Type of series: cell-based. Conditions: read-out: IC50 NCI-H460 (human Lung Cancer). On the procedure:
as §1

Another series concerns the target T1, PP4 (Homo sapiens, UniProt P60510).
T1 sequence (P60510 1-307): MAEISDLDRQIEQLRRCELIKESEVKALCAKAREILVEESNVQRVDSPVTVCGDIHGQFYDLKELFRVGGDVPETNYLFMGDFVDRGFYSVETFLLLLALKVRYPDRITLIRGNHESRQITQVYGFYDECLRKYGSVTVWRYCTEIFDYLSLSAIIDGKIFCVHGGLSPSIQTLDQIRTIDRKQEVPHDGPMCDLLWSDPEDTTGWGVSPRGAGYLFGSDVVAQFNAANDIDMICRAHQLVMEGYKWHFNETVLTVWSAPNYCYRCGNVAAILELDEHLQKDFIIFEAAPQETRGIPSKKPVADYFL
Conditions: cited from earlier work.

The next series concerns the target protein phophatase PP2A (Homo sapiens, UniProt P67775). The settings on record: cited from earlier work.
[3] abbreviates: 72 hours culture with compound, MTT, OD 570 nm.
The mark [4] stands for this setting: HL-60, 72 hours culture with compound, MTT, OD 570 nm.
[5] abbreviates: NCI-H460, 72 hours culture with compound, MTT, OD 570 nm.

Where two headings read alike, the source gives them in different places.

protein phophatase PP2A, sequence (P67775 whole entry): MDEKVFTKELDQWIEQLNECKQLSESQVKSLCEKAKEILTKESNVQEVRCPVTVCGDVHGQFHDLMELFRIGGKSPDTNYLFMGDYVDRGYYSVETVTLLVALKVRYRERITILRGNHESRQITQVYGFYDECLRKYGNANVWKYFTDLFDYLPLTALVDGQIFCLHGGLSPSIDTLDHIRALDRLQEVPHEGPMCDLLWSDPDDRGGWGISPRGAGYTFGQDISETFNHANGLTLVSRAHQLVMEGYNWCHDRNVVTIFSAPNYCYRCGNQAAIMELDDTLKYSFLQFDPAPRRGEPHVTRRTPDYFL

As a reminder, the IC50 is the concentration needed to halve the response being measured. `C[C@@](O)(/C=C/C1CC=CC(=O)O1)C(C[C@@H](O)\C=C/C=C\C=C\CO)OP(O)(O)=S` (stereo partly drawn) [A]: the “stability under the action of alkaline phosphatase” value in the series on alkaline phosphatase was “relatively stable”. For the same compound, the “formation of dephosphorylated FST under alkaline phosphatase” value with alkaline phosphatase was “no dephosphorylated FST was formed”. The IC50 in series [1] (72 h) turned out to be 9.6 µM; in the series on HL60 (human leukemia) (HL-60, 72 h) it was 10.5 µM; in series [2] (NCI-H460, 72 h), 13.2 µM.
In the case of `C[C@@](O)(/C=C/[C@H]1CC=CC(=O)O1)C(C[C@@H](O)\C=C/C=C\C=C\CO)OCP(=O)(O)O` (stereo partly drawn) [B], the “stability under the action of alkaline phosphatase” value in the series on alkaline phosphatase is “relatively stable”. Moreover, the “formation of dephosphorylated FST under alkaline phosphatase” value in the series with alkaline phosphatase is reported as “no dephosphorylated FST was formed”. Moreover, the values for the IC50 (in series [1] (setting [3]); in the series on HL60 (human leukemia) (setting [4]); in series [2] (setting [5])) were 14 µM, 12.5 µM and 16.3 µM, respectively.
Turning to `CC(O)(C=CC1CC=CC(=O)O1)C(CC(O)C=CC=CC=CCO)OP(=O)(O)O` (stereo not drawn) [FST, Fostriecin], the IC50 in series [1] (setting [3]) is 10 µM; in the series on HL60 (human leukemia) (setting [4]), 12 µM; at PP4 it was 0.003 µM; at protein phophatase PP2A, 0.0015 µM; in series [2] (setting [5]), 14.5 µM.

Source of the values: US8623912B2, “Fostriecin derivatives and the pharmaceutical uses thereof” (priority 2008, dated 2014).
